Legend:
[1] = system: A control cell lines; assay: MTT assay, A control cell lines (lung cancer cell); assay type: cell-based
Source text: Please refer to Table 1 and FIGS. 4A-4C. According to a MTT assay (Table 1), various cell viabilities of the A control cell lines can be obtained and illustrated in FIG. 4A while the compounds No. 2˜30 are used to treat A control cell lines, wherein A control cell lines are lung cancer cell.

[2] = system: A3 cell lines; assay: MTT assay, A3 cell lines (lung cancer stem cell); assay type: cell-based
Source text: Please to FIG. 4B, various cell viabilities of the A3 cell lines can be obtained through the MTT assay and illustrated in FIG. 4B while the compounds No. 1˜30 are used to treat A3 cell lines, wherein A3 cell lines are lung cancer stem cell.

[3] = MTT assay, HEL299 fibroblast; assay type: cell-based; settings: human
Source text: Please refer to FIG. 4C, various cell viabilities of the HEL299 cell lines can be obtained through the MTT assay while the compounds No. 1˜30 are used to treat HEL299 cell lines, wherein HEL299 cell lines are fibroblast.

[4] = system: CCRF-CEM; assay: NCI in vitro DTP human cell line screen, CCRF-CEM; assay type: cell-based; settings: Leukemia, 1.00E−5 Molar
Description: (§1) Then, a cell toxicity assay of the cancer lines made by National Cancer Institute will be discussed as follows. The cell toxicity assay is performed by choosing ten compounds (existing certification numbers) from the 59 compounds disclosed in the present invention first.

[5] = system: HL-60(TB); assay: NCI in vitro DTP human cell line screen, HL-60(TB); assay type: cell-based; settings: Leukemia, 1.00E−5 Molar
Description: as §1

[6] = system: K562; assay: NCI in vitro DTP human cell line screen, K562; assay type: cell-based; settings: Leukemia, 1.00E−5 Molar
Description: as §1

[7] = system: MOLT-4; assay: NCI in vitro DTP human cell line screen, MOLT-4; assay type: cell-based; settings: Leukemia, 1.00E−5 Molar
Description: as §1

[8] = system: RPMI-8226; assay: NCI in vitro DTP human cell line screen, RPMI-8226; assay type: cell-based; settings: Leukemia, 1.00E−5 Molar
Description: as §1

[9] = system: SR; assay: NCI in vitro DTP human cell line screen, SR; assay type: cell-based; settings: Leukemia, 1.00E−5 Molar
Description: as §1

[10] = system: HOP-62; assay: NCI in vitro DTP human cell line screen, HOP-62; assay type: cell-based; settings: Non-Small Cell Lung Cancer, 1.00E−5 Molar
Description: as §1

[11] = system: HOP-92; assay: NCI in vitro DTP human cell line screen, HOP-92; assay type: cell-based; settings: Non-Small Cell Lung Cancer, 1.00E−5 Molar
Description: as §1

[12] = system: NCI-H226; assay: NCI in vitro DTP human cell line screen, NCI-H226; assay type: cell-based; settings: Non-Small Cell Lung Cancer, 1.00E−5 Molar
Description: as §1

[13] = system: NCI-H23; assay: NCI in vitro DTP human cell line screen, NCI-H23; assay type: cell-based; settings: Non-Small Cell Lung Cancer, 1.00E−5 Molar
Description: as §1

[14] = system: NCI-H322M; assay: NCI in vitro DTP human cell line screen, NCI-H322M; assay type: cell-based; settings: Non-Small Cell Lung Cancer, 1.00E−5 Molar
Description: as §1

[15] = system: NCI-H460; assay: NCI in vitro DTP human cell line screen, NCI-H460; assay type: cell-based; settings: Non-Small Cell Lung Cancer, 1.00E−5 Molar
Description: as §1

[16] = system: NCI-H522; assay: NCI in vitro DTP human cell line screen, NCI-H522; assay type: cell-based; settings: Non-Small Cell Lung Cancer, 1.00E−5 Molar
Description: as §1

[17] = system: COLO 205; assay: NCI in vitro DTP human cell line screen, COLO 205; assay type: cell-based; settings: Colon Cancer, 1.00E−5 Molar
Description: as §1

[18] = system: HCC-2998; assay: NCI in vitro DTP human cell line screen, HCC-2998; assay type: cell-based; settings: Colon Cancer, 1.00E−5 Molar
Description: as §1

[19] = system: HCT-116; assay: NCI in vitro DTP human cell line screen, HCT-116; assay type: cell-based; settings: Colon Cancer, 1.00E−5 Molar
Description: as §1

[20] = system: HCT-15; assay: NCI in vitro DTP human cell line screen, HCT-15; assay type: cell-based; settings: Colon Cancer, 1.00E−5 Molar
Description: as §1

[21] = system: HT29; assay: NCI in vitro DTP human cell line screen, HT29; assay type: cell-based; settings: Colon Cancer, 1.00E−5 Molar
Description: as §1

[22] = system: KM12; assay: NCI in vitro DTP human cell line screen, KM12; assay type: cell-based; settings: Colon Cancer, 1.00E−5 Molar
Description: as §1

[23] = system: SW-620; assay: NCI in vitro DTP human cell line screen, SW-620; assay type: cell-based; settings: Colon Cancer, 1.00E−5 Molar
Description: as §1

[24] = system: SF-268; assay: NCI in vitro DTP human cell line screen, SF-268; assay type: cell-based; settings: CNS Cancer, 1.00E−5 Molar
Description: as §1

[25] = system: SF-539; assay: NCI in vitro DTP human cell line screen, SF-539; assay type: cell-based; settings: CNS Cancer, 1.00E−5 Molar
Description: as §1

[26] = system: SNB-19; assay: NCI in vitro DTP human cell line screen, SNB-19; assay type: cell-based; settings: CNS Cancer, 1.00E−5 Molar
Description: as §1

[27] = system: SNB-75; assay: NCI in vitro DTP human cell line screen, SNB-75; assay type: cell-based; settings: CNS Cancer, 1.00E−5 Molar
Description: as §1

[28] = system: U251; assay: NCI in vitro DTP human cell line screen, U251; assay type: cell-based; settings: CNS Cancer, 1.00E−5 Molar
Description: as §1

[29] = system: LOX IMVI; assay: NCI in vitro DTP human cell line screen, LOX IMVI; assay type: cell-based; settings: Melanoma, 1.00E−5 Molar
Description: as §1

[30] = system: MALME-3M; assay: NCI in vitro DTP human cell line screen, MALME-3M; assay type: cell-based; settings: Melanoma, 1.00E−5 Molar
Description: as §1

[31] = system: M14; assay: NCI in vitro DTP human cell line screen, M14; assay type: cell-based; settings: Melanoma, 1.00E−5 Molar
Description: as §1

[32] = system: SK-MEL-2; assay: NCI in vitro DTP human cell line screen, SK-MEL-2; assay type: cell-based; settings: Melanoma, 1.00E−5 Molar
Description: as §1

[33] = system: SK-MEL-28; assay: NCI in vitro DTP human cell line screen, SK-MEL-28; assay type: cell-based; settings: Melanoma, 1.00E−5 Molar
Description: as §1

[34] = system: SK-MEL-5; assay: NCI in vitro DTP human cell line screen, SK-MEL-5; assay type: cell-based; settings: Melanoma, 1.00E−5 Molar
Description: as §1

[35] = system: UACC-257; assay: NCI in vitro DTP human cell line screen, UACC-257; assay type: cell-based; settings: Melanoma, 1.00E−5 Molar
Description: as §1

[36] = system: UACC-62; assay: NCI in vitro DTP human cell line screen, UACC-62; assay type: cell-based; settings: Melanoma, 1.00E−5 Molar
Description: as §1

[37] = system: IGROV1; assay: NCI in vitro DTP human cell line screen, IGROV1; assay type: cell-based; settings: Ovarian Cancer, 1.00E−5 Molar
Description: as §1

[38] = system: OVCAR-3; assay: NCI in vitro DTP human cell line screen, OVCAR-3; assay type: cell-based; settings: Ovarian Cancer, 1.00E−5 Molar
Description: as §1

[39] = system: OVCAR-4; assay: NCI in vitro DTP human cell line screen, OVCAR-4; assay type: cell-based; settings: Ovarian Cancer, 1.00E−5 Molar
Description: as §1

[40] = system: OVCAR-5; assay: NCI in vitro DTP human cell line screen, OVCAR-5; assay type: cell-based; settings: Ovarian Cancer, 1.00E−5 Molar
Description: as §1

[41] = system: OVCAR-8; assay: NCI in vitro DTP human cell line screen, OVCAR-8; assay type: cell-based; settings: Ovarian Cancer, 1.00E−5 Molar
Description: as §1

[42] = system: NCI/ADR-RES; assay: NCI in vitro DTP human cell line screen, NCI/ADR-RES; assay type: cell-based; settings: Ovarian Cancer, 1.00E−5 Molar
Description: as §1

[43] = system: SK-OV-3; assay: NCI in vitro DTP human cell line screen, SK-OV-3; assay type: cell-based; settings: Ovarian Cancer, 1.00E−5 Molar
Description: as §1

[44] = system: 786-0; assay: NCI in vitro DTP human cell line screen, 786-0; assay type: cell-based; settings: Renal Cancer, 1.00E−5 Molar
Description: as §1

[45] = system: ACHN; assay: NCI in vitro DTP human cell line screen, ACHN; assay type: cell-based; settings: Renal Cancer, 1.00E−5 Molar
Description: as §1

[46] = system: RXF 393; assay: NCI in vitro DTP human cell line screen, RXF 393; assay type: cell-based; settings: Renal Cancer, 1.00E−5 Molar
Description: as §1

[47] = system: SN12C; assay: NCI in vitro DTP human cell line screen, SN12C; assay type: cell-based; settings: Renal Cancer, 1.00E−5 Molar
Description: as §1

[48] = system: TK-10; assay: NCI in vitro DTP human cell line screen, TK-10; assay type: cell-based; settings: Renal Cancer, 1.00E−5 Molar
Description: as §1

[49] = system: UO-31; assay: NCI in vitro DTP human cell line screen, UO-31; assay type: cell-based; settings: Renal Cancer, 1.00E−5 Molar
Description: as §1

[50] = system: PC-3; assay: NCI in vitro DTP human cell line screen, PC-3; assay type: cell-based; settings: Prostate Cancer, 1.00E−5 Molar
Description: as §1

[51] = system: DU145; assay: NCI in vitro DTP human cell line screen, DU145; assay type: cell-based; settings: Prostate Cancer, 1.00E−5 Molar
Description: as §1

[52] = system: MCF7; assay: NCI in vitro DTP human cell line screen, MCF7; assay type: cell-based; settings: Breast Cancer, 1.00E−5 Molar
Description: as §1

[53] = system: MDA-MB-231/ATCC; assay: NCI in vitro DTP human cell line screen, MDA-MB-231/ATCC; assay type: cell-based; settings: Breast Cancer, 1.00E−5 Molar
Description: as §1

[54] = system: HS 578-T; assay: NCI in vitro DTP human cell line screen, HS 578-T; assay type: cell-based; settings: Breast Cancer, 1.00E−5 Molar
Description: as §1

[55] = system: BT-549; assay: NCI in vitro DTP human cell line screen, BT-549; assay type: cell-based; settings: Breast Cancer, 1.00E−5 Molar
Description: as §1

[56] = system: T-47D; assay: NCI in vitro DTP human cell line screen, T-47D; assay type: cell-based; settings: Breast Cancer, 1.00E−5 Molar
Description: as §1

[57] = system: MDA-MB-468; assay: NCI in vitro DTP human cell line screen, MDA-MB-468; assay type: cell-based; settings: Breast Cancer, 1.00E−5 Molar
Description: as §1

[58] = system: 60 cancer lines; assay: NCI cell toxicity assay of 60 cancer lines, whole panel summary; assay type: cell-based, human; settings: 1.00E−5 Molar
Description: as §1

For `O=c1c2ccccc2sc2c(Cl)c(SCc3ccc(F)cc3)ccc12` [No. 24, 4-Chloro-3-(4-fluorobenzylthio)-9H-thioxanthen-9-one], the “cell viabilities of A control cell lines (MTT assay)” value [1] was 35.5%, the “cell viabilities of A3 cell lines (MTT assay)” value [2] was 47.8% and the viability [3] was 62.7 ± 4.89%. For the same compound, the “Growth Percent” value [4] was 68.02%, the “Growth Percent” value [5] was 109.87% and the “Growth Percent” value [6] was 90.35%. For the same compound, the “Growth Percent” value [7] was 93.42%, the “Growth Percent” value [8] was 92.73% and the “Growth Percent” value [9] was 23.41%. The “Growth Percent” value [10] was 70.93%, the “Growth Percent” value [11] was 76.43% and the “Growth Percent” value [12] was 92.71%. For the same compound, the “Growth Percent” value [13] was 93.31%, the “Growth Percent” value [14] was 89.87% and the “Growth Percent” value [15] was 60.27%. For the same compound, the “Growth Percent” value [16] was 76.14%, the “Growth Percent” value [17] was 86.59% and the “Growth Percent” value [18] was 100.08%. For the same compound, the “Growth Percent” value [19] was 76.97%, the “Growth Percent” value [20] was 84.86% and the “Growth Percent” value [21] was 79.24%. The “Growth Percent” value [22] was 102.36%, the “Growth Percent” value [23] was 78.63% and the “Growth Percent” value [24] was 95.00%. The “Growth Percent” value [25] was 103.66%, the “Growth Percent” value [26] was 77.05% and the “Growth Percent” value [27] was 64.79%. For the same compound, the “Growth Percent” value [28] was 54.73%, the “Growth Percent” value [29] was 81.78% and the “Growth Percent” value [30] was 93.42%. The “Growth Percent” value [31] was 93.91%, the “Growth Percent” value [32] was 108.61% and the “Growth Percent” value [33] was 107.78%. The “Growth Percent” value [34] was 95.97%, the “Growth Percent” value [35] was 103.43% and the “Growth Percent” value [36] was 85.61%. The “Growth Percent” value [37] was 79.84%, the “Growth Percent” value [38] was 105.27% and the “Growth Percent” value [39] was 39.31%. For the same compound, the “Growth Percent” value [40] was 108.14%, the “Growth Percent” value [41] was 85.39% and the “Growth Percent” value [42] was 92.71%. The “Growth Percent” value [43] was 90.11%, the “Growth Percent” value [44] was 91.67% and the “Growth Percent” value [45] was 60.81%. For the same compound, the “Growth Percent” value [46] was 92.20%, the “Growth Percent” value [47] was 84.46% and the “Growth Percent” value [48] was 83.61%. For the same compound, the “Growth Percent” value [49] was 95.13%, the “Growth Percent” value [50] was 86.19% and the “Growth Percent” value [51] was 103.70%. The “Growth Percent” value [52] was 89.93%, the “Growth Percent” value [53] was 81.64% and the “Growth Percent” value [54] was 67.70%. For the same compound, the “Growth Percent” value [55] was 88.80%, the “Growth Percent” value [56] was 81.88% and the “Growth Percent” value [57] was 92.16%. The “Growth Percent, Mean” value ([58]; mean over all cell lines) was 85.42% and the “cancer types with the better inhibition effect (in words)” value ([58]; summary of Table 3) was “better inhibition effect on Leukemia and central nervous system cancer”.
